In patent US20230026869A1, “CRYSTAL FORM OF NUCLEOPROTEIN INHIBITOR AND USE THEREOF” (CHIA TAI TIANQING PHARMACEUTICAL GROUP CO., LTD., priority 2019, published 2023):

Assay: Study on solid stability of crystal form P (high temperature, high humidity, light, accelerated conditions; XRPD and HPLC)
Format: physicochemical
Experimental: In order to evaluate the solid stability of the crystal form P, the crystal form P was investigated for influence factors (high temperature, high humidity and light), stability under accelerated conditions and stability under intermediate conditions. The crystal form P was placed at high temperature (60° C., closed), high humidity (room temperature, 92.5% RH, sealing film wrapping and pricking 5-10 small holes) for 5 days and 10 days, then placed under visible light and ultraviolet light (a light-shielding control group was wrapped by tinfoil paper) according to ICH conditions (visible light illumination reached 1.2E+06 Lux hrs, ultraviolet light illumination reached 200 W·hrs/m) in a closed manner, and meanwhile, placed with stability under accelerated conditions ([…]/75% RH, sealing film wrapping and pricking 5-10 small holes) for 10 days and 1-2 months.

[1] = 92.5% RH, room temperature, Day 5
[2] = 92.5% RH, room temperature, Day 10
[3] = Light-shielding control group, taken simultaneously with the visible light + ultraviolet groups
[4] = Light-shielding control group, taken simultaneously with the visible light group
[5] = Visible + ultraviolet (ICH), illumination reaches 200 W · hrs/m^2
[6] = Visible light (ICH), illumination reaches 1.2E+06 Lux · hrs

Compound: CC1(NC(=O)C(=O)c2c(Cl)c(C(=O)Nc3cc(F)c(F)c(F)c3)c3n2CCC3)CCC(CC(=O)O)CC1 (centres unmarked) [crystal form P]
- Crystal form change (60° C., closed, Day 5): Unchanged
- Relative purity (60° C., closed, Day 5): 100.0%
- Crystal form change (60° C., closed, Day 10): Unchanged
- Relative purity (60° C., closed, Day 10): 100.0%
- Crystal form change (60° C./75% RH, 1 month): Unchanged
- Relative purity (60° C./75% RH, 1 month): 100.0%
- Crystal form change (60° C./75% RH, Day 10): Unchanged
- Relative purity (60° C./75% RH, Day 10): 100.0%
- Crystal form change (60° C./75% RH, Month 2): Unchanged
- Relative purity (60° C./75% RH, Month 2): 100.0%
- Crystal form change [1]: Unchanged
- Relative purity [1]: 100.0%
- Crystal form change [2]: Unchanged
- Relative purity [2]: 100.0%
- Crystal form change [3]: Unchanged
- Relative purity [3]: 100.0%
- Crystal form change [4]: Unchanged
- Relative purity [4]: 99.9%
- Crystal form change [5]: Unchanged
- Relative purity [5]: 100.0%
- Crystal form change [6]: Unchanged
- Relative purity [6]: 100.0%
- Crystal form change (under all stability conditions): unchanged
